From PMC6612245 (Journal of the American Chemical Society, 2019)

Legend:
Assay type in all cases: biochemical
EcPurH [1] = target: T1, EcPurH (Escherichia coli, UniProt P15639); experiment: HPLC; conditions: cyclization to 7a
ForH [2] = target: T2, ForH (Streptomyces kaniharaensis, UniProt A0A4V8H038); experiment: HPLC of product 7a; conditions: cyclization to 7a; 10 min incubation
ForC = target: T3, ForC (Streptomyces kaniharaensis, UniProt A0A5S9FY43); experiment: anion exchange HPLC, substrate consumption; conditions: L-aspartate and ATP; 4 h
T3 sequence (A0A5S9FY43 1-333): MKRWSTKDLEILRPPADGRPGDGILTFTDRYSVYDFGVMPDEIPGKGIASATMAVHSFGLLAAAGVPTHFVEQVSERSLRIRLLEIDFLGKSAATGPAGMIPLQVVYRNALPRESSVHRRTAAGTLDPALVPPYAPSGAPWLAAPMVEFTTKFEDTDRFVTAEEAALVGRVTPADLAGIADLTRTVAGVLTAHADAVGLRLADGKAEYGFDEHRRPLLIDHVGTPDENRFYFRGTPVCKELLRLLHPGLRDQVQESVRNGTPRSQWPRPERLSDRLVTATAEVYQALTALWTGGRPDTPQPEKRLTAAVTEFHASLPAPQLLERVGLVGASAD

EcPurH [3] = target: T1, EcPurH; experiment: enzymatic preparation of 6b; conditions: formylation to 6b
SkPurH = target: T4, SkPurH (Streptomyces kaniharaensis, UniProt A0A6N7KQI7); experiment: HPLC of product 6b; conditions: N10-formyl-THF; formylation without cyclization; 1 h
T4 sequence (A0A6N7KQI7 24-525): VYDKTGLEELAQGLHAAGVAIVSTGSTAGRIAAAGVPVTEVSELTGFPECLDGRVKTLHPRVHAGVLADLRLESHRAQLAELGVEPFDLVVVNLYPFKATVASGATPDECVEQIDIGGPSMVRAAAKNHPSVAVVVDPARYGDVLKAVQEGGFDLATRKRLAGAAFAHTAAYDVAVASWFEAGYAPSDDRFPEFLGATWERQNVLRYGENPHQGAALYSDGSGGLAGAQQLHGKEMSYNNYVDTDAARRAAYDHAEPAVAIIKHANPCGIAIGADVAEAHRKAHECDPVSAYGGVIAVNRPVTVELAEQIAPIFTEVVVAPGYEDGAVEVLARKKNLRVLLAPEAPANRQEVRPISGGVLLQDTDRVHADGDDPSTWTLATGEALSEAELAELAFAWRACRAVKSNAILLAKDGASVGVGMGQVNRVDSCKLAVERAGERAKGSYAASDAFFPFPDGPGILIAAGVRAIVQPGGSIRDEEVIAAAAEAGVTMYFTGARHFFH

ForH [4] = target: T2, ForH; experiment: HPLC of product 7b; conditions: cyclization to 7b; 10 min incubation

T1 sequence (P15639 whole entry): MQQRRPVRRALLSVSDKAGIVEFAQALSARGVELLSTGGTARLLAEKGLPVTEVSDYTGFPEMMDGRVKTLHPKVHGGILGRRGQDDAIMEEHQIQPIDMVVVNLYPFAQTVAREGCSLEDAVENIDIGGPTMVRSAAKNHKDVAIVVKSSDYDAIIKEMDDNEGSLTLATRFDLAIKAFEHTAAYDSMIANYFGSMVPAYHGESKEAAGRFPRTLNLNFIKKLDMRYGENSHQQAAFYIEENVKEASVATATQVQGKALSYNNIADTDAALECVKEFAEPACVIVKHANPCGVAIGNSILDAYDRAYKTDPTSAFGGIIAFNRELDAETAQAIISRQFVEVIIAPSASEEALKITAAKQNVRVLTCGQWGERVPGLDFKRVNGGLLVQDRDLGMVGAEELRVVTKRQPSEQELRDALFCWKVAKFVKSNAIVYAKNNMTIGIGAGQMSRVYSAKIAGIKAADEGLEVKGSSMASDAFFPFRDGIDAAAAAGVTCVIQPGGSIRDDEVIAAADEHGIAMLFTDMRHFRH

`NC(=O)c1ncn([C@@H]2O[C@H](COP(=O)(O)O)[C@@H](O)[C@H]2O)c1NC=O` [6a] was tested, and the “HPLC (supplement)” value (EcPurH [1]) was 6a could be processed to 7a, while 6b could not be converted to 7b and the “HPLC of product 7a” value (ForH [2]) was “ForH demonstrates cyclase activity towards both 6a and 6b”.
`Nc1c([C@@H]2O[C@H](COP(=O)(O)O)[C@@H](O)[C@H]2O)n[nH]c1C(=O)O` [3b] was tested, and the “anion exchange HPLC, substrate consumption” value (ForC) was “Incubation of 3b with ForC along with L-aspartate and ATP led to the production”.
In the case of `NC(=O)c1[nH]nc([C@@H]2O[C@H](COP(=O)(O)O)[C@@H](O)[C@H]2O)c1N` [5b], the “enzymatic preparation of 6b” value (EcPurH [3]) is reported as 6b was enzymatically prepared from 5b using E. coli PurH as the catalyst and the “HPLC of product 6b” value (SkPurH) is reported as “incubation of 5b with S. kaniharaensis PurH (SkPurH) resulted in formylation of the pyrazolic amide”.
In the case of `NC(=O)c1[nH]nc([C@@H]2O[C@H](COP(=O)(O)O)[C@@H](O)[C@H]2O)c1NC=O` [6b], the “HPLC of product 7b” value (ForH [4]) is reported as “ForH demonstrates cyclase activity towards both 6a and 6b”.
